According to patent US20050039223A1, “Knock-in-mouse” (priority 2002, published 2005):

Legend:
[1] = molecular target: T1, nAChR containing α4-T265I (control α4, mutated α4 and β2) (Homo sapiens, UniProt P17787+P43681, T293I); assay: ACh- and CBZ-dose effect, two electrode voltage clamp in Xenopus oocytes expressing receptors containing α4-T265I; format: cell-based
T1 construct: expressed in transfected cells; host or cells: Xenopus oocytes, nuclear cDNA injection
Method: Expression experiments in Xenopus oocytes were conducted as previously described (2). Nuclear cDNA injections were conducted using a ratio of 0.5 control α4, 0.5 mutated α4 and 1 β2 (total amount 2 ng/oocytes) (3). The oocytes were kept in BARTH solution containing 88 mM NaCl, 1 mM KCl, 2.4 mM NaHCO3, 10 mM HEPES, 0.82 mM MgSO47H2O, 0.33 mM Ca(NO3)2.4H2O, 0.41 mM CaCl2.6H2O, pH 7.4, adjusted with NaOH and supplemented with kanamycin (20 μg/ml), penicillin (100 μg/ml) and streptomycin (100 μg/ml). Recordings were made 2 to 3 days later using the two electrode voltage clamp technique with a GENE-CLAMP amplifier (Axon Instrument). During the experiments the oocytes were continuously rinsed with OR2 solution: 82.5 mM NaCl, 2.5 mM KCl, 2.5 mM CaCl2, 5 mM HEPES, pH 7.4, adjusted with NaOH. Unless stated otherwise, the holding potential was −100 mV and the experiments were performed at 18° C. ACh dose response curves were best fitted by the sum of two empirical Hill equations: y=Imax{a/(1+(EC50H/x)^nH1)+(1−a)/(1+(EC50L/x)^nH2)} (equation (1)). Imax is the maximal current amplitude and x is the agonist concentration. EC50H, nH1 and a are the half-effective concentration, the Hill coefficient the percentage of receptors in high-affinity state, respectively, whereas EC50L and nH2 correspond to the half-effective concentration and the Hill coefficient in low-affinity state. […]

ADNFLE = ADNFLE patients; antiepileptic drug resistant cases also exist; cited from earlier work

T1 sequence (P43681 29-627 T293I limits assumed): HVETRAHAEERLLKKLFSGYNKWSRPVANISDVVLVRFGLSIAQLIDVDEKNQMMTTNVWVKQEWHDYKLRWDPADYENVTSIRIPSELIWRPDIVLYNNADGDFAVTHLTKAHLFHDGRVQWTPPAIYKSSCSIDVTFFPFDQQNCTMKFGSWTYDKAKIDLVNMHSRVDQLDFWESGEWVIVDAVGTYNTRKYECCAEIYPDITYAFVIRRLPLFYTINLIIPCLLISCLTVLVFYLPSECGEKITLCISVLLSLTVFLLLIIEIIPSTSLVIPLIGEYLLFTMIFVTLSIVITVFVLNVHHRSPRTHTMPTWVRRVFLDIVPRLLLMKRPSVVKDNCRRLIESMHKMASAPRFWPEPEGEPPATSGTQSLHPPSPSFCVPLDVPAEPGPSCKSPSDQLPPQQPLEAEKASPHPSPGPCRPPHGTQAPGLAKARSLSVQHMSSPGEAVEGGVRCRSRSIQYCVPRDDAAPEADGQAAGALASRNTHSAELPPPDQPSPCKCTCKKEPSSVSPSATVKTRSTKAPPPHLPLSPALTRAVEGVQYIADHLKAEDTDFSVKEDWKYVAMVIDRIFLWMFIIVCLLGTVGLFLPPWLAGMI
T1 sequence (P43681 27-627, stated change not applied): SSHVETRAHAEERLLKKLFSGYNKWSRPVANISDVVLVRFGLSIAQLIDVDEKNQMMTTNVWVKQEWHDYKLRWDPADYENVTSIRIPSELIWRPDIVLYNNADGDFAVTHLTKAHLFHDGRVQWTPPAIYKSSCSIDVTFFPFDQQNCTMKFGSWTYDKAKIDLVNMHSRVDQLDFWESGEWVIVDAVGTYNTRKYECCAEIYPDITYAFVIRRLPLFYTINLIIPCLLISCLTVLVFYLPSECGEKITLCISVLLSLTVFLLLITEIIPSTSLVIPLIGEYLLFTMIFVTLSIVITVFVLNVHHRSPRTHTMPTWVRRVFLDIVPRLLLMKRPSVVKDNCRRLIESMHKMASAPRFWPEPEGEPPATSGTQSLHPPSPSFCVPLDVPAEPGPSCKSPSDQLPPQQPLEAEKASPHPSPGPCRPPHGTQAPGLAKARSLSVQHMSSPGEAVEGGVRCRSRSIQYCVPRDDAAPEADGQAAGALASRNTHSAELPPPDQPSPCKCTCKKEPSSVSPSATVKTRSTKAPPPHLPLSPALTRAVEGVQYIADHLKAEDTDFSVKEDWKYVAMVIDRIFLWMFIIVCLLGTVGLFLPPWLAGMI
T1 sequence (P17787 26-502): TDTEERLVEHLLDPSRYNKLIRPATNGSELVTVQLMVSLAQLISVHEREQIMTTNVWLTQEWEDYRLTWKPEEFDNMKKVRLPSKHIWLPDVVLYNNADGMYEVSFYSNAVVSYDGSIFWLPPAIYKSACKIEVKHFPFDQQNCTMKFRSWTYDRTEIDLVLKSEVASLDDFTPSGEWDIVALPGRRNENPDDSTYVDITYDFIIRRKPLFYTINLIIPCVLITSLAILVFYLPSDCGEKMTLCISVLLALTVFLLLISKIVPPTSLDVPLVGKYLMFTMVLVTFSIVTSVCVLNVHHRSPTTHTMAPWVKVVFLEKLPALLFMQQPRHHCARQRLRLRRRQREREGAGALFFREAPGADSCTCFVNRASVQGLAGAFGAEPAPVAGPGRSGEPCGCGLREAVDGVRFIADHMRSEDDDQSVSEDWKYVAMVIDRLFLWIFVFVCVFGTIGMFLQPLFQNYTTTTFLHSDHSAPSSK

NC(=O)N1c2ccccc2C=Cc2ccccc21 [Carbamazepin, Carbamazepine]
Carbamazepin-sensitivity ([1]; α4-T265I compared with control, CBZ inhibition of ACh-evoked currents): non-increased
Treatability of ADNFLE (ADNFLE): can normally be well treated

CC(=O)OCC[N+](C)(C)C [ACh]
ACh-sensitivity of the mutated receptors ([1]; α4-T265I mutated receptors compared with control, Xenopus oocytes): increased
